The record followed here is patent US11110141B2, “Herbal compositions for the prevention or treatment of urinary incontinence and overactive bladder” (Rox IP Pty Ltd., priority 2011, dated 2021).

Structures are written as SMILES.

The test system of this data set is bladder control problems (urinary frequency, nocturia, stress incontinence, interstitial cystitis). In words: Case studies. The class given is in vivo, human. The procedure:
person with a history of bladder frequency since childhood. They were diagnosed as a child, via cystometric studies, as having a small bladder. They were not medicated.
They presented urinary frequency, every 1.5 hours; nocturia (waking for the toilet at night) every 1.5 to 2.5 hours.
If consumed large quantities of alcohol (greater than 8 standard drinks), would experience flooding nocturesis (bed wetting). […]
person with stress incontinence (2-7 times daily) and urinary frequency (11 times daily). […] When presented, they were using oxybutynin patches (Oxytrol). A specialist recommended that they change patches every 3 days.
Person presented with interstitial cystitis that had been worsening for at least the past 5 years. They presented with penile pain (and some lower abdominal pain) that would increase in intensity the fuller their bladder, with relief on urination. As a result, they would need to urinate at least every 1.5 hours, day and night. If they went too long, the pain would increase to the point where they found it extremely difficult to walk or move. Every month, they would have an episode, usually during the night, where they would pass copious amounts of blood and some mucous from the bladder.
They would also find that every two weeks their symptom severity would increase and they would have “horrific, sharp pain all day every day” for two days. […]

As for `Cc1ccc(O)c([C@H](CCN(C(C)C)C(C)C)c2ccccc2)c1` [Detrol], the “tolerability of previously tried drugs” value (in vivo) was “could not tolerate the side effects of dry mouth and nasal passages”.
Take `CCN(CC)CC#CCOC(=O)C(O)(c1ccccc1)C1CCCCC1` (centres unmarked) [oxybutynin]: the “tolerability of previously tried drugs” value (Case 2, patient history) is “could not tolerate the side effects of dry mouth and nasal passages”.
